One experiment relates to androgen receptor. Briefly: androgenic activity rating (procedures described above). To be noted: rated according to scheme; test procedure not specified. Details: key: +: androgenic activity found; ++: high androgenic activity; +++: excellent androgenic activity. The method, then:
(§1) Androgenic activity can be measured in various ways. Thus, the potency of androgens can be determined in vitro using the cytoplasmic androgen receptor from human breast tumor cells (MCF-7 cell line); see Bergink, E. W. et al, Comparison of the receptor binding properties of nandrolone and testosterone under in vitro and in vivo conditions, J. Steroid Biochem. 22, 831-836 (1985). It is also possible to use Chinese hamster ovary (CHO) cells transfected with the human androgen receptor (incubation time 16 h, temperature 4° C.) and compared with the affinity of 5α-dihydrotestosterone [according to the procedure described by Bergink, E. W. et al, J. Steroid Biochem. 19, 1563-1570 (1983)]. The transactivative androgen activity of the compounds of the invention can be measured, e.g. in Chinese hamster ovary cells (CHO) transfected with the human androgen receptor (hAR), in combination with a mouse mammary tumor virus (MMTV), and luciferase […] gene (incubation time 16 h, temperature 37° C.) and compared with the activity of […] [according to the procedure described by Schoonen, W. G. E. J. et al, Analyt. Biochem. 261, 222-224 (1998)]. For the in vivo potency determination of androgens the classical Hershberger test can be used. In this test the androgenic (increase in prostate weight) and anabolic activities [increase of the musculus levator ani (MLA)] of a compound are tested in immature castrated rats after daily administration for 7 days; see Hershberger, L. G. et al, Myotrophic activity of 19-Nortestosteronie and other steroids determined by modified levator ani muscle method, Proceedings of the society for experimental biology and medicine 83, 175-180 (1953). Additionally, the effect of an androgenic compound on LH suppression can be tested in mature castrated rats according to Kumar, N. et al, The biological activity of 7alpha-methyl-19-nortestosterone is not amplified in male reproductive tract as is that of testosterone, Endocrinology 130, 3677-3683 (1992).
The compounds according to the invention were tested for androgenic activity (the procedures for which have been described above) and rated according to the following scheme: […]

The target in experiment [1] is T1, human androgen receptor (hAR) (Homo sapiens, UniProt P10275).
T1 construct: expressed in transfected cells; host or cells: Chinese hamster ovary (CHO) cells
T1 sequence (P10275 1-920): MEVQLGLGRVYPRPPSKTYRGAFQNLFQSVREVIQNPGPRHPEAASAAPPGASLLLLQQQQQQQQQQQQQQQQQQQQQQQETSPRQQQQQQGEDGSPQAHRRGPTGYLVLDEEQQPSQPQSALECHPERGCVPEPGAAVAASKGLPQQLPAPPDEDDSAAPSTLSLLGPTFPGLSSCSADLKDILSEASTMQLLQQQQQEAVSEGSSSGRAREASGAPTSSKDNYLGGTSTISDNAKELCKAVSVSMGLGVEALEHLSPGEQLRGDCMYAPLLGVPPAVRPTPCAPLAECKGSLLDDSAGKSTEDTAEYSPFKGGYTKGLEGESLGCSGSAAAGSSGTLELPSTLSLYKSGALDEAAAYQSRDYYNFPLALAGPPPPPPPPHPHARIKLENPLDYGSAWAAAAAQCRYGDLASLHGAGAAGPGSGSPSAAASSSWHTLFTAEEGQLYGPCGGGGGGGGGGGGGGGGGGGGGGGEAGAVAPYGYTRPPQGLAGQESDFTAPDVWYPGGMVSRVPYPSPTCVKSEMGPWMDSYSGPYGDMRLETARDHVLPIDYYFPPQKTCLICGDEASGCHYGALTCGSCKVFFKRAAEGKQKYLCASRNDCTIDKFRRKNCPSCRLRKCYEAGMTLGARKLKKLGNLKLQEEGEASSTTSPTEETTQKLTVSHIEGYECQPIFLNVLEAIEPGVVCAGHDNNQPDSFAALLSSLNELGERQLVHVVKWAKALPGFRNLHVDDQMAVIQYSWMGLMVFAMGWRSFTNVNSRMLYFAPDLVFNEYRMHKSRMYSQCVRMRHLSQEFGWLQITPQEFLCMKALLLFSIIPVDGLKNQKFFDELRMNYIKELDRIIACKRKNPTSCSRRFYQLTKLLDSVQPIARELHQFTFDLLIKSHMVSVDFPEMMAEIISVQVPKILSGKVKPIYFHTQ
Put plainly: transactivative androgen activity in CHO cells transfected with hAR, MMTV and luciferase reporter gene. In kind it is cell-based. To be noted: MMTV, luciferase, incubation 16 h, 37° C., compared with the activity of dihydrotestosterone. The method, then:
as §1, with “Biochem. 261, 222-224 (1998)]. For the in vivo potency determination of androgens the classical Hershberger test can be used.” left out, “Additionally, the effect of an androgenic compound on LH suppression can be tested in mature castrated rats according to Kumar, N. et al, The biological activity of 7alpha-methyl-19-nortestosterone is not amplified in male reproductive tract as is that of testosterone, Endocrinology 130, 3677-3683 (1992).” left out
The transactivative androgen activity was determined in a comparison of the following compounds: the compound of Example 1 according to the invention, i.e. (7α,14β,16α,17α)-16,17-dihydro-17-(hydroxymethyl)-7-methyl-3′H-cyclopropa[16,17]estra-4,16-dien-3-one, and compounds denoted C1 and C2, not according to the invention, which respectively are (7α,14β,16β,17α)-17-(hydroxymethyl)-7,16-dimethylestr-4-en-3-one and (7α,14β,17α)-17-(hydroxymethyl)-7,17-dimethylestr-4-en-3-one as disclosed in WO 00/53619.

Consider `C[C@@H]1CC2=CC(=O)CC[C@@H]2[C@H]2CC[C@@]3(C)[C@H](C[C@@H]4C[C@@]43[C@H](C)O)[C@@H]21` [Example 2, (7α,14β,16α,17α,20S)-16,17-Dihydro-20-hydroxy-7-methyl-3′H-cyclopropa[16,17]-19-norpregna-4,16-dien-3-one], for which the “Result (androgenic activity)” value in the experiment on androgen receptor is recorded as “++”.
Still for that read-out and setting: in the case of `C#C[C@H](O)[C@]12C[C@H]1C[C@@H]1[C@H]3[C@H](CC[C@@]12C)[C@H]1CCC(=O)C=C1C[C@H]3C` [Example 3b, [7α,14β,16α,17α(20S)]-16,17-Dihydro-20-(1-hydroxy-2-propynyl)-7-methyl-3 ′H-cyclopropa[16,17]estra-4,16-dien-3-one] it was “++”.
In the case of `C[C@@H]1CC2=CC(=O)CC[C@@H]2[C@H]2CC[C@@]3(C)[C@H](C[C@@H]4C[C@@]43CO)[C@@H]21` [Example 1, (7α,14β,16α,17α)-16,17-Dihydro-17-(hydroxymethyl)-7-methyl-3′H-cyclopropa[16,17]estra-4,16-dien-3-one], in experiment [1], the Transactivative androgen activity was found to be 263. Besides, in the experiment with androgen receptor, the “Result (androgenic activity)” value was “+++”.
With `C[C@@H]1CC2=C/C(=N/O)CC[C@@H]2[C@H]2CC[C@@]3(C)[C@H](C[C@@H]4C[C@@]43CO)[C@@H]21` [Example 5a, (3E,7α,14β,16α,17α)-16,17-Dihydro-3-(hydroxyimino)-7-methyl-3′H-cyclopropa[16,17]estra-4,16-diene-17-methanol], the “Result (androgenic activity)” value in the experiment with androgen receptor is listed as “(prodrug)”.
Consider `C[C@]12CC[C@H]3[C@@H](CCC4=CC(=O)CC[C@@H]43)[C@H]1C[C@@H]1C[C@@]12CO` [Example 6, (14β,16α,17α)-16,17-Dihydro-17-(hydroxymethyl)-3′H-cyclopropa[16,17]estra-4,16-dien-3-one], for which the “Result (androgenic activity)” value in the experiment with androgen receptor is “++”.
Same read-out and setting: in the case of `C[C@@H]1CC2=C[C@@H](O)CC[C@@H]2[C@H]2CC[C@@]3(C)[C@H](C[C@@H]4C[C@@]43CO)[C@@H]21` [Example 4, (3β,7α,14β,16α,17α)-16,17-Dihydro-17-(hydroxymethyl)-7-methyl-3′H-cyclopropa[16,17]estra-4,16-dien-3-ol] it was “(prodrug)”; in that of `C[C@]12CC[C@H]3[C@@H](CC[C@H]4CC(=O)CC[C@@H]43)[C@H]1C[C@@H]1C[C@@]12CO` [Example 7, (5α,14β,16α,17α)-16,17-Dihydro-17-(hydroxymethyl)-3′H-cyclopropa[16,17]estr-16-en-3-one], “++”; in that of `C[C@@H]1CC2=C/C(=N\O)CC[C@@H]2[C@H]2CC[C@@]3(C)[C@H](C[C@@H]4C[C@@]43CO)[C@@H]21` [Example 5b, (3Z,7α,14β,16α,17α)-16,17-dihydro-3-(hydroxyimino)-7-methyl-3′H-cyclopropa[16,17]estra-4,16-diene-17-methanol], “(prodrug)”.
Take `CC1CC2=CC(=O)CCC2C2CCC3(C)C(CCC3(C)CO)C12` (stereo not drawn) [Example C2, (7α,14β,17α)-17-(hydroxymethyl)-7,17-dimethylestr-4-en-3-one]: in experiment [1], the Transactivative androgen activity is given as 22.
With `C[C@@H]1CC2=CC(=O)CC[C@@H]2[C@H]2CC[C@@]3(C)[C@H](C[C@H](C)[C@H]3CO)[C@@H]21` [Example C1, (7α,14β,16β,17α)-17-(hydroxymethyl)-7,16-dimethylestr-4-en-3-one], the Transactivative androgen activity in experiment [1] is given as 72.
As to `CC[C@H](O)[C@]12C[C@H]1C[C@@H]1[C@H]3[C@H](CC[C@@]12C)[C@H]1CCC(=O)C=C1C[C@H]3C` [Example 3a, [7α,14β,16α,17α(20S)]-16,17-Dihydro-20-(1-hydroxypropyl)-7-methyl-3′H-cyclopropa [16,17]estra-4,16-dien-3-one], the “Result (androgenic activity)” value in the experiment with androgen receptor is reported as “++”.

The values are drawn from patent US6949531B2, “14 β, 16, 17-methylene steroids as novel androgens” (Akzo Nobel N.V., priority 2000, dated 2005).
